Counter-ions that a name gives are not always drawn. Like-named read-outs stand apart in the source and are kept apart here.
Tests used:
[1] = tested on: Adriamycin-Resistant Human Ovary Cancer Cells (A2780/ADM); conditions: 72 h
Description: (§1) A2780/ADM cells were diluted with an RPMI 1640 medium (430-1800 EB, produced by GIBCO) containing 10% fetal bovine serum (200-6140AG, produced by GIBCO) and 1% glutamine (320-5030 PG, produced by GIBCO) to a concentration of 30000 cells/ml. One milliliter of the cell suspension was inoculated to each well of a 24-well microtiter plate and cultured under conditions of 37°C, 5% CO₂, and a humidity of 95% or higher for 1 day. A mixture of 0.1 ml of a Vindesine solution diluted serially with the above medium and 0.1 ml of the above medium was added to each well as a control group. […] The cells in each well were further cultured under the same conditions as above for additional 3 days, and the number of the cells was counted with a Coulter counter to obtain a 50% growth inhibitory concentration (IC₅₀) of the control groups and the test groups.

[2] = tested on: Adriamycin-Resistant Human Ovary Cancer Cells (A2780/ADM); assay: Test on Vindesine Resistance Using Adriamycin-Resistant Human Ovary Cancer Cells (A2780/ADM)
Description: as §1

[3] = tested on: Vincristine-Resistant Mouse Leukemia Cells (P388/VCR); assay: Test on Vincristine Resistance Using Vincristine-Resistant Mouse Leukemia Cells (P388/VCR); format: in vivo; conditions: for T/C: P388/VCR-implanted CDF₁ mice
Description: Vincristine-resistant P388 cells (P388/VCR) were suspended in physiological saline, and 5x10⁶ cells/0.2 ml were intraperitoneally implanted to grouped 6-week-old CDF₁ strain male mice, each group consisting of 5 mice. A prescribed amount of Vincristine alone or a mixture of Vincristine and a test compound (I) was intraperitoneally administered for consecutive 5 days from the next day of the implantation. The effect of overcoming the drug resistance was evaluated in terms of T/C, a percentage of the number of survival days of a test group to the number of survival days of a control group.
Vincristine (VCR) used was Vincristine Sulfate, produced by Shionogi & Co., Ltd., dissolved in physiological saline. Compound (I) was suspended in a 0.3% aqueous solution of carboxymethyl cellulose and administered in an amount of 0.1 ml per 10 g-b.w. […]

[4] = A2780, 72 h, read-out: IC₅₀ of Test Compound Alone, A2780/ADM cells, test compound alone, 3 days culture, cell count

Row | Structure (SMILES) | IC50 [2, 4] | other results
1 | COC1C(N(C)CCO)CC2OC1(C)n1c3ccccc3c3c4c(c5c6ccccc6n2c5c31)C(=O)NC4O (single isomer, unassigned) [Compound I-8] |  | IC50 [1]: 17.2 µM
2 | COC1C(N(C)CCO)CC2OC1(C)n1c3ccccc3c3c4c(c5c6ccccc6n2c5c31)C(=O)NC4O (single isomer, unassigned) [Compound I-9] | 9.2 µM | 
3 | CNC1CC2OC(C)(C1OC)n1c3ccccc3c3c4c(c5c6ccccc6n2c5c31)C(=O)N(C)C4 (stereo not drawn) [Compound I-1] | 0.26 µM | 
4 | COC1C(N(C)C(=O)OCc2ccccc2)CC2OC1(C)n1c3ccccc3c3c4c(c5c6ccccc6n2c5c31)C(=O)N(C)C4 (stereo not drawn) [Compound I-2] | > 100 µM | T/C ([3]; Compound (I-2) alone 22.2 mg/kg i.p. for 5 consecutive days, survival days vs control): 102%; effect of overcoming the drug resistance ([3]; P388/VCR-implanted mice, combined with Vincristine, statement in words): excellent effects to overcome the drug resistance; T/C ([3]; VCR 0.1 mg/kg + Compound (I-2) 22.2 mg/kg i.p. for 5 consecutive days): 152%
5 | COC1C(N(C)C(=O)N2CCN(C)CC2)CC2OC1(C)n1c3ccccc3c3c4c(c5c6ccccc6n2c5c31)C(=O)NC4O (stereo not drawn) [Compound I-3] | 10 µM | 
6 | COC1C(N(C)C(=O)CN2CCOCC2)CC2OC1(C)n1c3ccccc3c3c4c(c5c6ccccc6n2c5c31)C(=O)NC4O (stereo not drawn) [Compound I-4] | 7 µM | 
7 | COC1C(N(C)C(=O)CN(C)C)CC2OC1(C)n1c3ccccc3c3c4c(c5c6ccccc6n2c5c31)C(=O)NC4O (stereo not drawn) [Compound I-5] | 9.1 µM | 
8 | COC1C(N(C)C(=O)CN2CCN(C)CC2)CC2OC1(C)n1c3ccccc3c3c4c(c5c6ccccc6n2c5c31)C(=O)NC4O (stereo not drawn) [Compound I-6] | 12.5 µM | 
9 | COC1C(N(C)CCOC(=O)N2CCN(C)CC2)CC2OC1(C)n1c3ccccc3c3c4c(c5c6ccccc6n2c5c31)C(=O)NC4O (stereo not drawn) [Compound I-7] | 9.5 µM | 
10 | CCOC(=O)N(C)C1CC2OC(C)(C1OC)n1c3ccccc3c3c4c(c5c6ccccc6n2c5c31)C(=O)N(C)C4 (stereo not drawn) [Compound I-10] |  | IC50 ([2]; A2780, 72 h, read-out: IC₅₀ of Test Compound Alone): > 10 µM
11 | CCOC(=O)C1(O)CC2OC1(C)n1c3ccccc3c3c4c(c5c6ccccc6n2c5c31)C(=O)NC4 (stereo not drawn) [Compound I-11] | 0.16 µM | IC50 ([2]; A2780, read-out: IC₅₀ of Vindesine, A2780/ADM cells, Vindesine with test compound at 0.05 µM): 0.77 µM
12 | CCCOC(=O)C1(O)CC2OC1(C)n1c3ccccc3c3c4c(c5c6ccccc6n2c5c31)C(=O)NC4 (stereo not drawn) [Compound I-12] | 0.42 µM | 
13 | CCCCOC(=O)C1(O)CC2OC1(C)n1c3ccccc3c3c4c(c5c6ccccc6n2c5c31)C(=O)NC4 (stereo not drawn) [Compound I-13] | 1.1 µM | 
14 | CCCCCCOC(=O)C1(O)CC2OC1(C)n1c3ccccc3c3c4c(c5c6ccccc6n2c5c31)C(=O)NC4 (stereo not drawn) [Compound I-14] | 4.8 µM | 
15 | CCCCCCOC(=O)C1(O)CC2OC1(C)n1c3ccccc3c3c4c(c5c6ccccc6n2c5c31)C(=O)NC4=O (stereo not drawn) [Compound I-15] | 2.8 µM | 
16 | COC(=O)C1(OC(C)=O)CC2OC1(C)n1c3ccccc3c3c4c(c5c6ccccc6n2c5c31)C(=O)N(C(C)=O)C4 (stereo not drawn) [Compound I-17] | > 100 µM | 
17 | CC[C@]1(O)C[C@H]2CN(CCc3c([nH]c4ccccc34)[C@@](C(=O)OC)(c3cc4c(cc3OC)N(C=O)[C@H]3[C@@](O)(C(=O)OC)[C@H](OC(C)=O)[C@]5(CC)C=CCN6CC[C@]43[C@@H]65)C2)C1 [VCR, Vincristine Sulfate, reference compound] |  | T/C ([3]; VCR alone 0.1 mg/kg i.p. for 5 consecutive days): 112%; T/C ([3]; VCR alone 0.2 mg/kg i.p. for 5 consecutive days): 116%; T/C ([3]; VCR alone 0.4 mg/kg i.p. for 5 consecutive days): 121%
18 | CC[C@]1(O)C[C@@H]2CN(CCc3c([nH]c4ccccc34)[C@@](C(=O)OC)(c3cc4c(cc3OC)N(C)[C@H]3[C@@](O)(C(N)=O)[C@H](O)[C@]5(CC)C=CCN6CC[C@]43[C@@H]65)C2)C1 [Vindesine, reference compound] |  | IC50 ([2]; A2780, read-out: IC₅₀ of Vindesine, A2780/ADM cells, control group: Vindesine alone, no test compound): 1.3 µM

Source: EP0643966A1, “SENSITIVITY ENHANCER FOR ANTINEOPLASIC AGENT” (KYOWA HAKKO KOGYO CO., LTD., priority 1993, dated 1994)
